Several values for one entry are separate records, joined by “and”; a condition that tells them apart may be missing. Equal values may be shown once.
Tests used:
[1] = 101 kPa, Liquid; for speed of sound: Pulse-echo method
[2] = xn = mol fraction of the nth substance listed; settings: 101 kPa, Liquid, x1 = 1

COC(C)(C)C [2-methoxy-2-methylpropane]
[1]
Settings | mass density [kg/m3] | speed of sound
288.15 K | 747.273 | 1086.6 m/s and 1086.9 m/s
293.15 K | 742.072 | 1063.4 m/s
298.15 K | 736.826 | 1040.3 m/s
303.15 K | 731.532 | 1017.4 m/s
308.15 K | 726.185 | 994.68 m/s

COC(C)(C)C [2-methoxy-2-methylpropane] + CCCN
[2]
Settings | mass density [kg/m3] | speed of sound [m/s]
288.15 K | 747.273 | 1086.6
293.15 K | 742.072 | 1063.4
298.15 K | 736.826 | 1040.3
303.15 K | 731.532 | 1017.4
308.15 K | 726.185 | 994.68

COC(C)(C)C [2-methoxy-2-methylpropane] + CCCNCCC
[2], Pulse-echo method
Settings | speed of sound [m/s]
288.15 K | 1086.9
293.15 K | 1063.4
298.15 K | 1040.3
303.15 K | 1017.4
308.15 K | 994.68

[2]
Settings | mass density [kg/m3]
288.15 K | 747.273
293.15 K | 742.072
298.15 K | 736.826
303.15 K | 731.532
308.15 K | 726.185

CCCNCCC [dipropylamine]
[1]
Settings | mass density [kg/m3] | speed of sound [m/s]
288.15 K | 745.064 | 1235.1
293.15 K | 740.501 | 1213.4
298.15 K | 735.924 | 1191.9
303.15 K | 731.333 | 1170.4
308.15 K | 726.732 | 1149

CCCN [propan-1-amine]
[1]
Settings | mass density [kg/m3] | speed of sound [m/s]
288.15 K | 725.08 | 1266.1
293.15 K | 719.859 | 1242
298.15 K | 714.586 | 1218
303.15 K | 709.269 | 1194
308.15 K | 703.911 | 1169.9

Reference: the NIST ThermoML archive (doi:10.1021/je900597n)
